Test results from ChEMBL document CHEMBL1201862, “PubChem BioAssay data set” (2004).
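Values below derive from 48-hour exposures of cells grown in 96-well plates, with endpoints linearly interpolated between the two concentrations bracketing the appropriate inhibition level. GI50: concentration for 50% inhibition of growth.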 Calls of active or inactive are those of the source. Rule as the data show it: active = GI50 up to about 1.1 µM and inactive = higher.

Key:
Experiment in all cases: growth of human tumour cells (NCI), 48 h
SK-MEL-2 = test system: SK-MEL-2
KM12 = test system: KM12
SF-268 = test system: SF-268
K562 = test system: K562
OVCAR-8 = test system: OVCAR-8
MCF7 = test system: MCF7
DU-145 = test system: DU-145
UACC-257 = test system: UACC-257
SNB-19 = test system: SNB-19
Hs-578T = test system: Hs-578T
NCI-H522 = test system: NCI-H522
ACHN = test system: ACHN
SF-539 = test system: SF-539
EKVX = test system: EKVX
UO-31 = test system: UO-31
OVCAR-5 = test system: OVCAR-5
CCRF-CEM = test system: CCRF-CEM
LOX IMVI = test system: LOX IMVI
HL-60 = test system: HL-60

Measured: GI50

Cc1ccc(C2=Nc3ccccc3SC(c3cccc([N+](=O)[O-])c3)C2)cc1 (stereo not given)
inactive: SK-MEL-2 34 µM | KM12 8.04 µM | SF-268 16.2 µM | K562 6.56 µM | OVCAR-8 10.2 µM | MCF7 4.08 µM | DU-145 13.1 µM | UACC-257 24.7 µM | SNB-19 26.9 µM | Hs-578T 14.3 µM | NCI-H522 9.59 µM | ACHN > 100 µM | SF-539 3.8 µM | EKVX 49.7 µM | UO-31 5.4 µM | OVCAR-5 > 100 µM

Cc1ccc(C(CC(=O)C(C)(C)CN2CCCCC2)SCCS(=O)(=O)O)cc1 (stereo not given)
inactive: SK-MEL-2 12.5 µM | KM12 31.1 µM | SF-268 37.8 µM | K562 11.6 µM | OVCAR-8 21.9 µM | MCF7 21.6 µM | CCRF-CEM 19.3 µM | DU-145 41.9 µM | SNB-19 57.4 µM | Hs-578T 30.7 µM | NCI-H522 25.8 µM | ACHN 25.2 µM | SF-539 23.2 µM | EKVX 21.9 µM | UO-31 25.2 µM | OVCAR-5 20.9 µM

O=C(c1ccccc1)c1ccc2c(c1)nc1n2C(c2c(F)cccc2F)SC1 (stereo not given)
inactive: SK-MEL-2 18.5 µM | KM12 11.2 µM | SF-268 49.9 µM | LOX IMVI 25.6 µM | OVCAR-8 24.5 µM | MCF7 26.5 µM | DU-145 40.5 µM | UACC-257 29.6 µM | SNB-19 32.1 µM | Hs-578T 59 µM | NCI-H522 34.7 µM | ACHN 28.8 µM | SF-539 28.6 µM | EKVX 11.5 µM | UO-31 11.6 µM | OVCAR-5 25.8 µM

CC(C)(C)OC(=O)NC(Cc1ccccc1)OCc1ccccc1 (stereo not given)
inactive: SK-MEL-2 29.4 µM | KM12 19.5 µM | SF-268 18.4 µM | K562 20.6 µM | OVCAR-8 20.1 µM | MCF7 19.7 µM | DU-145 20.1 µM | UACC-257 > 10 µM | SNB-19 19.5 µM | Hs-578T 23.3 µM | NCI-H522 11.4 µM | ACHN 19.4 µM | SF-539 21.4 µM | EKVX 17.4 µM | UO-31 17.1 µM | OVCAR-5 24 µM

COc1ccc(C2c3c[nH]nc3CC3CCCCC32)cc1 (stereo not given)
inactive: SK-MEL-2 17.9 µM | HL-60 23.4 µM | SF-268 18.2 µM | LOX IMVI 17.9 µM | K562 22.2 µM | OVCAR-8 17.3 µM | MCF7 15.2 µM | CCRF-CEM 21.9 µM | DU-145 13.4 µM | UACC-257 22.4 µM | SNB-19 18.2 µM | NCI-H522 19.8 µM | ACHN 19 µM | UO-31 14 µM | OVCAR-5 20.5 µM

COCN1C(=O)[C@@H]2CCCN2C(=O)c2cc(Cl)ccc21
inactive: SK-MEL-2 > 100 µM | KM12 > 100 µM | SF-268 > 100 µM | LOX IMVI > 100 µM | K562 > 100 µM | OVCAR-8 > 100 µM | MCF7 > 100 µM | DU-145 > 100 µM | UACC-257 > 100 µM | SNB-19 > 100 µM | Hs-578T > 100 µM | NCI-H522 > 100 µM | ACHN > 100 µM | EKVX > 100 µM | UO-31 > 100 µM | OVCAR-5 > 100 µM

CN(C)c1nncc2[nH]nnc12
inactive: SK-MEL-2 > 100 µM | HL-60 > 100 µM | KM12 > 100 µM | LOX IMVI > 100 µM | K562 > 100 µM | OVCAR-8 > 100 µM | MCF7 > 100 µM | CCRF-CEM > 100 µM | UACC-257 > 100 µM | NCI-H522 > 100 µM | ACHN > 100 µM | SF-539 > 100 µM | EKVX > 100 µM | UO-31 > 100 µM | OVCAR-5 > 100 µM

COC(=O)[C@H](C)[C@H]1CC[C@@](C)([C@H]2CC3C(C)(C)[C@H]4CCC(C)=C[C@H]4C[C@@]3(C)O2)OO1 (stereo not given in full)
inactive: SK-MEL-2 15.4 µM | HL-60 2.05 µM | KM12 11.7 µM | SF-268 8.77 µM | LOX IMVI 1.6 µM | K562 6.21 µM | OVCAR-8 10.7 µM | CCRF-CEM 4.2 µM | UACC-257 12.1 µM | SNB-19 14.8 µM | NCI-H522 1.66 µM | ACHN 10.4 µM | SF-539 15 µM | EKVX 13.7 µM | UO-31 6.52 µM | OVCAR-5 13.4 µM

Cc1ccc(S(=O)(=O)N2CCC(=O)c3cc(Br)ccc32)cc1
inactive: SK-MEL-2 10.3 µM | KM12 3.24 µM | SF-268 18.2 µM | LOX IMVI 6.52 µM | K562 4.57 µM | OVCAR-8 14.4 µM | MCF7 4.45 µM | DU-145 8.67 µM | UACC-257 6.95 µM | SNB-19 18.4 µM | NCI-H522 7.93 µM | ACHN 16.8 µM | SF-539 5 µM | EKVX 23.9 µM | UO-31 10.9 µM | OVCAR-5 42.4 µM

CC1(C)CC2(S(=O)(=O)c3ccccc3)ON1CC2S(=O)(=O)c1ccccc1 (stereo not given)
inactive: SK-MEL-2 > 100 µM | HL-60 26.4 µM | KM12 > 100 µM | SF-268 > 100 µM | LOX IMVI 87.1 µM | K562 47.1 µM | OVCAR-8 74.1 µM | CCRF-CEM 26.8 µM | UACC-257 > 100 µM | SNB-19 > 100 µM | NCI-H522 29.4 µM | ACHN > 100 µM | SF-539 > 100 µM | EKVX > 100 µM | UO-31 94.2 µM | OVCAR-5 > 100 µM

CC(=O)C(CN(C)Cc1ccccc1)C(c1ccccc1)c1c(O)c2ccccc2oc1=O (stereo not given)
inactive: SK-MEL-2 > 100 µM | HL-60 52.5 µM | KM12 > 100 µM | SF-268 > 100 µM | LOX IMVI > 100 µM | K562 > 100 µM | OVCAR-8 > 100 µM | CCRF-CEM > 100 µM | UACC-257 > 100 µM | SNB-19 11 µM | NCI-H522 80.4 µM | ACHN > 100 µM | SF-539 > 100 µM | EKVX > 100 µM | UO-31 16.6 µM | OVCAR-5 > 100 µM

N=C(N)C1CN(CCCCCCCCCCN2CC(C(=N)N)C(O)=NC2=O)C(=O)N=C1O (stereo not given)
inactive: SK-MEL-2 > 10 µM | HL-60 > 10 µM | KM12 > 10 µM | LOX IMVI > 10 µM | K562 > 10 µM | OVCAR-8 > 10 µM | MCF7 > 10 µM | CCRF-CEM > 10 µM | UACC-257 > 10 µM | SNB-19 > 10 µM | Hs-578T > 10 µM | NCI-H522 > 10 µM | ACHN > 10 µM | SF-539 > 10 µM | EKVX > 10 µM | OVCAR-5 > 10 µM
